{
  "source": "patent US6781015B2",
  "about": "“Aminobenzophenones and photopolymerizable compositions including the same” (Albemarle Corporation, priority 1997, dated 2004)",
  "key": {"[1]": {"system": "Salmonella typhimurium tester strain TA98", "assay": "Salmonella/Mammalian-Microsome Reverse Mutation Screening Assay (Ames Test)", "assay_type": "cell-based", "design": "key to Background lawn: 1 = normal; 2 = slightly reduced; 3 = moderately reduced; 4 = extremely reduced; 5 = absent; 6 = obscured by precipitate; sp = slight precipitate; mp = moderate precipitate (requires hand count); hp = heavy precipitate (requires hand count)", "details": "for Individual plate counts, revertants per plate: plates 1-3", "experimental": "Mutagenicity can be measured by a variety of assays. The most commonly used method is the Salmonella/Mammalian-Microsome Reverse Mutation Screening Assay (Ames Test), which commonly uses four or five strains of Salmonella bacteria to detect different types of mutations.\nTMMK, TEMK and MEAB were evaluated for the ability to induce reverse mutations at the histidine locus in the genome of a specific Salmonella typhimurium tester strain in the presence of an exogenous metabolic activation system of mammalian microsomal enzymes derived from Aroclor™-induced rat liver (S9). The tester strain used in the mutagenicity assay was Salmonella typhimurium tester strain TA98 with added activation. The assay was conducted using eight doses of the test article, along with the appropriate vehicle and positive controls in the presence of S9 mix (S9 homogenate was purchased from Molecular Toxicology, Inc., Annapolis, Md. 21401, Batch 0646, 43.4 mg of protein per ml). Positive controls were also plated in the absence of S9 mix. All doses of test article, vehicle, and positive controls were plated in triplicate.\n(§1) The test article TMMK was stored at room temperature. Acetone (CAS# 67-64-1, Fisher Scientific Co., Lot 961140) was used as the vehicle. At 20 mg per ml, which was the most concentrated stock solution which could be prepared, the test article formed a clear, light yellow solution. The test article remained a solution in all succeeding dilutions prepared for the mutagenicity assay. The maximum aliquot of acetone which can be used in the test system is 200 μl. Thus, the maximum concentration which could be tested was 4,000 μg per plate. The test article and vehicle controls were plated using a 200 μl plating aliquot. Positive control articles were plated using 50 μl plating aliquot.\n(§2) The test article TEMK was stored at room temperature. Acetone (CAS# 67-64-1, Fisher Scientific Co., Lot 961140) was used as the vehicle. At 100 mg per ml, which was the most concentrated stock solution prepared, the test article formed a clear, yellow solution. The test article remained a solution in all succeeding dilutions prepared for the mutagenicity assay. The test article, vehicle controls and positive control articles were plated using a 50 μl plating aliquot.\nas §2, with “MEAB” for “TEMK”, “(CAS#67-64-1,” for “(CAS# 67-64-1,”, “25” for “100”, “clear, light” for “clear,”, “article and” for “article,”, “were plated using a 200 μl plating aliquot. Positive” for “and positive”\nThe data are presented as individual plate counts along with a mean and standard deviation."}, "[2]": {"assay": "Most concentrated stock solution in acetone", "assay_type": "physicochemical", "details": "clear, light yellow solution", "experimental": "as §1"}, "[3]": {"system": "Salmonella typhimurium tester strain TA98", "details": "strain TA98 with added mammalian metabolic activation, adequate concentrations of test material; cited from earlier work"}, "[4]": {"details": "based on cancer studies in rats and mice; cited from earlier work"}, "[5]": {"details": "TA98, rat liver S9, 3.33 μg/plate"}, "[6]": {"details": "TA98, rat liver S9, 10.0 μg/plate"}, "[7]": {"details": "TA98, rat liver S9, 33.3 μg/plate"}, "[8]": {"details": "TA98, rat liver S9, 100 μg/plate"}, "[9]": {"details": "TA98, rat liver S9, 333 μg/plate"}, "[10]": {"details": "TA98, rat liver S9, 1000 μg/plate"}, "[11]": {"details": "TA98, rat liver S9, 3330 μg/plate"}, "[12]": {"details": "TA98, rat liver S9, 4000 μg/plate"}, "[13]": {"details": "tester strain TA98 in the presence of S9 mix"}},
  "note": "Where “and” joins values, the source holds several entries; their conditions need not be identical. Equal entries are not always repeated.",
  "data": [
    {"smiles": "CN(C)c1ccc(C(=O)c2ccc(N(C)C)cc2)cc1", "note": "[TMMK, 4,4′-bis(dimethylamino)benzophenone]", "values": [
      {"measurement": "Mean revertants per plate", "setting": "[1]; [5]", "value": 22, "unit": "revertants per plate"},
      {"measurement": "Individual plate counts, revertants per plate", "setting": "[1]; [5]", "value": "14 revertants per plate and 29 revertants per plate and 24 revertants per plate"},
      {"measurement": "Mean revertants per plate", "setting": "[1]; [6]", "value": 16, "unit": "revertants per plate"},
      {"measurement": "Individual plate counts, revertants per plate", "setting": "[1]; [6]", "value": "9 revertants per plate and 19 revertants per plate (2×)"},
      {"measurement": "Mean revertants per plate", "setting": "[1]; [7]", "value": 31, "unit": "revertants per plate"},
      {"measurement": "Individual plate counts, revertants per plate", "setting": "[1]; [7]", "value": "21 revertants per plate and 35 revertants per plate and 37 revertants per plate"},
      {"measurement": "Mean revertants per plate", "setting": "[1]; [8]", "value": 17, "unit": "revertants per plate"},
      {"measurement": "Individual plate counts, revertants per plate", "setting": "[1]; [8]", "value": "16 revertants per plate and 12 revertants per plate and 22 revertants per plate"},
      {"measurement": "Mean revertants per plate", "setting": "[1]; [9]", "value": 18, "unit": "revertants per plate"},
      {"measurement": "Individual plate counts, revertants per plate", "setting": "[1]; [9]", "value": "18 revertants per plate and 23 revertants per plate and 12 revertants per plate"},
      {"measurement": "Mean revertants per plate", "setting": "[1]; [10]", "value": 31, "unit": "revertants per plate"},
      {"measurement": "Individual plate counts, revertants per plate", "setting": "[1]; [10]", "value": "35 revertants per plate and 26 revertants per plate and 33 revertants per plate"},
      {"measurement": "Mean revertants per plate", "setting": "[1]; [11]", "value": 79, "unit": "revertants per plate"},
      {"measurement": "Individual plate counts, revertants per plate", "setting": "[1]; [11]", "value": "78 revertants per plate (2×) and 82 revertants per plate"},
      {"measurement": "Mean revertants per plate", "setting": "[1]; [12]", "value": 81, "unit": "revertants per plate"},
      {"measurement": "Individual plate counts, revertants per plate", "setting": "[1]; [12]", "value": "80 revertants per plate and 70 revertants per plate and 93 revertants per plate"},
      {"measurement": "Background lawn", "setting": "[1]; Table 1, TA98, rat liver S9, 3.33 μg/plate", "value": 1},
      {"measurement": "Background lawn", "setting": "[1]; Table 1, TA98, rat liver S9, 10.0 μg/plate", "value": 1},
      {"measurement": "Background lawn", "setting": "[1]; Table 1, TA98, rat liver S9, 33.3 μg/plate", "value": 1},
      {"measurement": "Background lawn", "setting": "[1]; Table 1, TA98, rat liver S9, 100 μg/plate", "value": 1, "unit": "sp"},
      {"measurement": "Background lawn", "setting": "[1]; Table 1, TA98, rat liver S9, 333 μg/plate", "value": 1, "unit": "mp"},
      {"measurement": "Background lawn", "setting": "[1]; Table 1, TA98, rat liver S9, 1000 μg/plate", "value": 1, "unit": "mp"},
      {"measurement": "Background lawn", "setting": "[1]; Table 1, TA98, rat liver S9, 3330 μg/plate", "value": 6, "unit": "mp"},
      {"measurement": "Background lawn", "setting": "[1]; Table 1, TA98, rat liver S9, 4000 μg/plate", "value": 6, "unit": "mp"},
      {"measurement": "Background lawn", "setting": "[1]; Table 2 summary, TA98, rat liver S9, 3.33 μg/plate", "value": 1},
      {"measurement": "Background lawn", "setting": "[1]; Table 2 summary, TA98, rat liver S9, 10.0 μg/plate", "value": 1},
      {"measurement": "Background lawn", "setting": "[1]; Table 2 summary, TA98, rat liver S9, 33.3 μg/plate", "value": 1},
      {"measurement": "Background lawn", "setting": "[1]; Table 2 summary, TA98, rat liver S9, 100 μg/plate", "value": 1, "unit": "sp"},
      {"measurement": "Background lawn", "setting": "[1]; Table 2 summary, TA98, rat liver S9, 333 μg/plate", "value": 1, "unit": "mp"},
      {"measurement": "Background lawn", "setting": "[1]; Table 2 summary, TA98, rat liver S9, 1000 μg/plate", "value": 1, "unit": "mp"},
      {"measurement": "Background lawn", "setting": "[1]; Table 2 summary, TA98, rat liver S9, 3330 μg/plate", "value": 6, "unit": "mp"},
      {"measurement": "Background lawn", "setting": "[1]; Table 2 summary, TA98, rat liver S9, 4000 μg/plate", "value": 6, "unit": "mp"},
      {"measurement": "Ames Test outcome (mutagenicity)", "setting": "[1]; [13]", "value": "mutagenic"},
      {"measurement": "Increase in the number of revertants per plate", "setting": "[1]; [13]", "value": 3.9, "unit": "fold"},
      {"measurement": "Most concentrated stock solution which could be prepared", "setting": "[2]", "value": 20, "unit": "mg per ml"},
      {"measurement": "Ames Test outcome in the literature", "setting": "[3]", "value": "consistently found to have mutations"},
      {"measurement": "National Toxicology Program carcinogen listing", "setting": "[4]", "value": "reasonably anticipated to be a carcinogen"}
    ]}
  ]
}
